In brackets after ≈: the same amount, converted by molar mass. Where two headings read alike, the source gives them in different places.
Legend:
[1] = system: S. aureus specific Arg ASL (anticodon stem loop) RNA oligomer interaction with programmed ribosomes; experiment: Fluorescence polarization assay of Arg ASL / programmed ribosome complex (HTS and dose response); assay type: binding, S. aureus Arg ASL; E. coli 70S ribosomes; conditions: 6 pt dose response, fluorescence polarization after 4 hours at 25° C., corrected for auto-fluorescence
Text: The assay requires the following materials: • Ribosomes—isolated from E. coli or S. aureus • fMet tRNA (Sigma or Chemical Block, Moscow) • mRNA (including the S-D sequence, the “box” sequence, the codon for methionine, and the codon for arginine that is specific for S. aureus, AGA, optionally with additional base pairs to the left of the S-D sequence and/or to the right of the codon for arginine) • Fluorescently labeled Arg ASL oliogomer • Buffer—HAM20,β • 384 well high binding micro titer plates (Matrix Technologies #4319, sold by Fischer Scientific as cat #50823855), or other appropriate plates for use in high throughput screening • Filtration (Sartorius Stedium 100 Kdalton VC 1042) or centrifugation for complex purification • EDTA—negative control (binding antagonist) • Neomycin—A-site binding enhancer (binding agonist)
A ribosome complex was prepared using the above materials and then purified prior to use in the assay. The prepared complex can be stored in concentrated form at −80° C. The complexes were diluted in buffer and dispensed onto plates. […] Fluorescence polarization was measured at approximately 4 hours after dispensing onto the micro-titer plates.
ASL^Arg was first heated for 2 min at 90° C. in water, after addition of 1/10 V of 10× buffer incubation continued on ice for at least 10 min. Prior to complex formation 70S ribosomes and tRNA were reactivated in buffer for 5 min at 45° C. followed by 10 min at 37° C.; mRNA was heated in buffer at 37° C. for 5 min. • (1000 μl×(2 μM E. coli 70S ribosomes+10 μM mRNA-Arg+4 μM tRNA^fmet)/HAM20,β→30 min @ 37° C.,+1000 μl×(0.2 μM neomycin+[…]))→20 min @ 37° C., overnight on ice • Final complex: (2000 pm P+2000 pm ASL)/2 ml=1 μM P+1 μM ASL HAM20,β:
Preparation of Complexes: The purified complex was diluted in ice cold HAM20,β such that the total fluorescence was approximately 2,000,000 units per 5 μL.
20 μl of the diluted complex was added to all 384 well plates (except for blank wells, which received 20 μL of HAM20 only, without complex) using Multidrop dispenser after which the plates were incubated at 25° C. for 4 hours (target 4.5 hours for middle of batch). Plates were then analyzed for fluorescence polarization in Analyst HT fluorescence plate reader and the following instrument settings:
The parallel and perpendicular fluorescence values of experimental wells were automatically corrected for the corresponding values obtained from the blank wells. The fluorescence polarization was calculated as following: P=(I−Ip)/(I+Ip), wherein Ip—is perpendicular fluorescence and I—is parallel fluorescence.
The percent of effect of experimental compounds was calculated as following: %-Inh=(P0−Pc)/(P0−P100)*100, wherein P0—is average polarization in 0%—inhibition control wells, P100—is average polarization in 100%—inhibition control wells, and Pc—is polarization in compound well.
The 3 sigma HTS hits were cherry picked and retested in 6 pt dose response format, using 3× serial dilution and the top nominal concentration of 100 uM.
The compounds were serially diluted in 10% DMSO and plated into 384 well plates (in a volume of 5 μL) to achieve the nominal final concentration raging from 100 μM to 0.4 μM. The plates received 20 μl of the diluted complex following incubation at 25° C. for 4 hours. Plates were then analyzed for fluorescence polarization as described above (see HTS section).
In parallel, the compounds were tested for auto-fluorescence. To this end, the compounds were plated (using the same dilution protocol) into 384 well plates. The plates received 20 μL of the HAM20 assay buffer only (without complex). The plates were incubated for 4 hrs and then were analyzed for fluorescence polarization as described above.

[2] = system: SA 158 (Staphylococcus aureus 158); experiment: MIC; assay type: cell-based; conditions: SA 158, read-out: MIC
Procedure: (§1) The strains included Staphylococcus aureus, Methicillin Resistant (ATCC 33591), Methicillin-Resistant Staphylococcus aureus USA300, Staphylococcus aureus 158, Staphylococcus aureus 22, Staphylococcus aureus 2, Staphylococcus aureus (ATCC 29213), and Staphylococcus aureus 182.
(§2) A series of compounds were evaluated for their activity against drug resistant S. aureus, including MSSA and MRSA strains.

[3] = system: SA 182 (Staphylococcus aureus 182); experiment: MIC; assay type: cell-based; conditions: SA 182, read-out: MIC
Procedure: as §1, §2

[4] = system: SA 2 (Staphylococcus aureus 2); experiment: MIC; assay type: cell-based; conditions: SA 2, read-out: MIC
Procedure: as §1, §2

[5] = system: SA 22 (Staphylococcus aureus 22); experiment: MIC; assay type: cell-based; conditions: SA 22, read-out: MIC
Procedure: as §1, §2

[6] = system: SA 29213 (Staphylococcus aureus (ATCC 29213)); experiment: MIC; assay type: cell-based; conditions: ATCC29213, SA 29213, read-out: MIC
Procedure: as §1, §2

[7] = system: SA 33591 (Staphylococcus aureus, Methicillin Resistant (ATCC 33591)); experiment: MIC; assay type: cell-based; conditions: ATCC33591, SA 33591, read-out: MIC
Procedure: as §1, §2

[8] = system: SA USA 300 (Methicillin-Resistant Staphylococcus aureus USA300); experiment: MIC; assay type: cell-based; conditions: SA USA 300, read-out: MIC
Procedure: as §1, §2

E. faecalis 161651 = experiment: MIC; assay type: cell-based; conditions: Enterococcus faecalis; E. faecalis 161651; read-out: MIC
Procedure: (§3) The compounds were re-tested against other bacteria, including Staphylococcus epidermidis (ATCC 35984), Staphylococcus epidermidis (MRSE), E. faecium 134529, E. faecium 145494, […], E. faecium 161651, S. pneumoniae 49619, and S. pneumoniae 149389.
as §2

E. faecalis 29212 = experiment: MIC; assay type: cell-based; conditions: Enterococcus faecalis; E. faecalis 29212; read-out: MIC
Procedure: as §3, §2

E. faecium 134529 = experiment: MIC; assay type: cell-based; conditions: Enterococcus faecium; E. faecium 134529; read-out: MIC
Procedure: as §3, §2

E. faecium 145494 = experiment: MIC; assay type: cell-based; conditions: Enterococcus faecium; E. faecium 145494; read-out: MIC
Procedure: as §3, §2

S. epidermidis 35984 = experiment: MIC; assay type: cell-based; conditions: Staphylococcus epidermidis; S. epidermidis 35984; read-out: MIC
Procedure: as §3, §2

S. epidermidis MRSE 01 = experiment: MIC; assay type: cell-based; conditions: Staphylococcus epidermidis; S. epidermidis MRSE 01; read-out: MIC
Procedure: as §3, §2

S. pneumoniae 149389 = experiment: MIC; assay type: cell-based; conditions: Streptococcus pneumoniae; S. pneumoniae 149389; read-out: MIC
Procedure: as §3, §2

S. pneumoniae 49619 = experiment: MIC; assay type: cell-based; conditions: Streptococcus pneumoniae; S. pneumoniae 49619; read-out: MIC
Procedure: as §3, §2

E. coli 25922 = experiment: MIC; assay type: cell-based; conditions: Escherichia coli; E. coli 25922; read-out: MIC
E. coli ESBL 4 = experiment: MIC; assay type: cell-based; conditions: Escherichia coli, ESBL4; E. coli ESBL 4; read-out: MIC
K. pneumoniae 700603 = experiment: MIC; assay type: cell-based; conditions: Klebsiella pneumoniae; K. pneumoniae 700603; read-out: MIC
K. pneumoniae UMM = experiment: MIC; assay type: cell-based; conditions: Klebsiella pneumoniae; K. pneumoniae UMM; read-out: MIC
Mammalian Cell Toxicity [9] = assay type: cell-based; conditions: human, MRC5 cells
Mammalian Cell Toxicity [10] = assay type: cell-based; conditions: mouse, 3T3 cells

SMILES	MIC [2] [µg/mL]	MIC [3] [µg/mL]	MIC [4] [µg/mL]	MIC [5] [µg/mL]	MIC [6] [µg/mL]	MIC [7] [µg/mL]	MIC [8] [µg/mL]	MIC (E. faecalis 161651) [µg/mL]	MIC (E. faecalis 29212) [µg/mL]	MIC (E. faecium 134529) [µg/mL]	MIC (E. faecium 145494) [µg/mL]	MIC (S. epidermidis 35984) [µg/mL]	MIC (S. epidermidis MRSE 01) [µg/mL]	MIC (S. pneumoniae 149389) [µg/mL]	MIC (S. pneumoniae 49619) [µg/mL]	MIC (E. coli 25922) [µg/mL]	MIC (E. coli ESBL 4) [µg/mL]	MIC (K. pneumoniae 700603) [µg/mL]	MIC (K. pneumoniae UMM) [µg/mL]	CC50 (Mammalian Cell Toxicity [9]) [µg/mL]	further results
Oc1ccccc1N=Cc1c(O)c(Br)cc2oc3c(c12)CCCC3 [Compound 136, 3-bromo-1-{[(2-hydroxyphenyl)imino]methyl}-6,7,8,9-tetrahydrodibenzo[b,d]furan-2-ol]	32 (≈ 82.8 µM)	> 128	16 (≈ 41.4 µM)	16 (≈ 41.4 µM)	32 (≈ 82.8 µM)	32 (≈ 82.8 µM)	128 (≈ 331 µM)	128 (≈ 331 µM)	128 (≈ 331 µM)	64 (≈ 166 µM)	> 128	64 (≈ 166 µM)	8 (≈ 20.7 µM)	> 128	> 128	> 128	> 128	> 128	> 128	6.8 (≈ 17.6 µM)	IC50 ([1]; read-out: IC50): 80 µM; CC50 (Mammalian Cell Toxicity [10]): 2.3 µg/mL (≈ 5.95 µM)
O=C(O)C(c1ccccc1)N1C(=O)C(=Cc2c[nH]c3ccccc23)SC1=S (stereo not shown) [Compound 537, [5-(1H-indol-3-ylmethylene)-4-oxo-2-thioxo-1,3-thiazolidin-3-yl](phenyl)acetic acid]	64 (≈ 162 µM)	64 (≈ 162 µM)	128 (≈ 324 µM)	64 (≈ 162 µM)	64 (≈ 162 µM)	64 (≈ 162 µM)	64 (≈ 162 µM)	128 (≈ 324 µM)	128 (≈ 324 µM)	128 (≈ 324 µM)	> 128	128 (≈ 324 µM)	128 (≈ 324 µM)	64 (≈ 162 µM)	32 (≈ 81.1 µM)	> 128	> 128	> 128	> 128	38 (≈ 96.3 µM)	IC50 [1]: agonist; CC50 (Mammalian Cell Toxicity [10]): 20 to 64 µg/mL (≈ 50.7 to 162 µM)
CN1CCN(c2nc(C=Cc3ccccc3)nc3ccccc23)CC1 [Compound #096, 4-(4-methyl-1-piperazinyl)-2-(2-phenylvinyl)quinazoline]	128 (≈ 387 µM)	128 (≈ 387 µM)	32 (≈ 96.8 µM)	64 (≈ 194 µM)	64 (≈ 194 µM)	> 128	64 (≈ 194 µM)	128 (≈ 387 µM)	128 (≈ 387 µM)	64 (≈ 194 µM)	128 (≈ 387 µM)	> 128	128 (≈ 387 µM)	64 (≈ 194 µM)	64 (≈ 194 µM)	> 128	> 128	> 128	> 128	62 (≈ 188 µM)	IC50 ([1]; read-out: IC50): 91 µM; CC50 (Mammalian Cell Toxicity [10]): 51.5 µg/mL (≈ 156 µM)
COc1ccc2c(c1)c(=O)oc1c(C)c(OC(C(=O)O)c3ccccc3)ccc12 (stereo not shown) [Compound #211, [(8-methoxy-4-methyl-6-oxo-6H-benzo[c]chromen-3-yl)oxy](phenyl)acetic acid]	128 (≈ 328 µM)	128 (≈ 328 µM)	128 (≈ 328 µM)	128 (≈ 328 µM)	128 (≈ 328 µM)	> 128	128 (≈ 328 µM)	128 (≈ 328 µM)	128 (≈ 328 µM)	> 128	> 128	> 128	> 128	128 (≈ 328 µM)	32 (≈ 82 µM)	> 128	> 128	> 128	> 128	26 (≈ 66.6 µM)	IC50 [1]: agonist; CC50 (Mammalian Cell Toxicity [10]): 28 µg/mL (≈ 71.7 µM)
